# Source: publication PMC4195615, “Inhibition Effect of a Custom Peptide on Lung Tumors” (PLoS ONE, 2014)
# Columns and labels:
# [1] = test system: normal lung cell versus cancerous lung cell; details: general statement, no reference given; cited from earlier work
# Description: IC50 is the chemical concentration that produces 50% cell survival. The selectivity index of a lung cancer drug is a measure of how specific its killing action is to cancer cells. It is the ratio of its IC50 for a normal lung cell to its IC50 for a cancerous lung cell.
# [2] = 100 mg/m^2 in a three-week cycle; cited from earlier work
# Description: Drugs presently in use to combat lung cancers have severe side effects because their toxicity is not sufficiently selective to cancer cells. For example, docetaxel administered at a dose of 100 mg/m^2 in a three-week cycle causes haematological toxicity (86% patients having grade 3 or 4 neutropenia).
# [3] = test system: human NCI-H460 cancer cells xenograft; assay: Nude mouse xenograft, post-treatment-only, comparison with docetaxel; details: for Mean tumor volume at week 4: 0.012 mmol/kg i.v. (CB1a 50 mg/kg, docetaxel 10 mg/kg), saline 5,400 mm^3; for Mean tumor volume at week 4 / Mean body weight at week 4 / Mean tumor weight as % of that in saline treated mice: 5 injections per week for 4 weeks; for Body weight course: compared with saline treated mice; for Mean body weight at week 5: data not shown; for Mean tumor weight as % of that in saline treated mice: week 4, sacrificed
# 3T3/3T6 tissue cells = assay: In vitro toxicity to other normal cells; format: cell-based; details: data not shown
# NCI-H460 cancer cells [4] = assay: Tumor-like spheroid (MCTS) formation, modified hanging drop method; format: cell-based, human; details: NCI-H460, 5×10^2 cells
# Description: We used non-adhesive, bacterial culture-grade polystyrene Petri dishes. Approximately 5×10^2 NCI-H460 cancer cells (3×10^4 cells/ml) were deposited as a drop on the inner face of lids to 90 mm Petri dishes. These lids were then placed on their dishes, which were filled with 10 ml phosphate-buffered saline (PBS). A monolayer of NCI-H460 lung cancer cells was then de-attached by 0.25% Trypsin-EDTA. These dishes were then incubated at 37 C in a 5% CO2 incubator. This modified “hanging drop” method causes the cancer cells to grow in a tumor-like aggregation; which is called a MCTS. After 3 days incubation, CB1a was applied in different concentrations (5, 15, 30, 45 and 60 µM) to different plates and a photo was then taken of each plate after 36 hours. This methodology investigated the post-treatment of CB1a, after tumor formation. The pre-treatment effect of CB1a, before tumor formation, was also studied. CB1a was applied in different concentrations (5, 15, 30, 45 and 60 µM) to different plates and left for 30 minutes before the 0.25% Trypsin-EDTA de-attachment step. After this step, the plates were incubated for 3 days and 36 hours before being photographed.
# MRC-5 normal cells = assay: Cell plate growth study, photographed; format: cell-based, human; details: 50 µM CB1a added after 4 days, photographed after 24 hours, 2×10^3 cells at start
# Description: (§1) NCI-H460 cancer cells were grown on two cell plates (2×10^3 cells at start in each) – after 4 days, CB1a (50 µM) was added to one and not the other. […] This experiment was repeated but with normal cells. MRC-5 normal cells were grown on two cell plates (2×10^3 cells at start in each) – after 4 days, CB1a (50 µM) was added to one and not the other.
# (§2) Photos A and B show without and with CB1a (50 µM), on NCI-H460 cancer cells, respectively. Photos C and D show without and with CB1a (50 µM), on MRC-5 normal cells, respectively. Initial cell concentrations on plates were 2×10^3 cells for all; photos were taken after 5 days incubation; where CB1a was applied it was done so at the end of day 4. Comparing A and B: one can note without CB1a there is significant cellular growth, as to be expected from a cancer cell line; with CB1a there is not, presumably because of a CB1a kill action against cancer cells.
# NCI-H460 cancer cells [5] = assay: Cell plate growth study, photographed; format: cell-based, human; details: 50 µM CB1a added after 4 days, photographed after 24 hours, 2×10^3 cells at start
# Description: as §1, §2
# HFL1 cells = assay: In vitro toxicity to other normal cells; format: cell-based; details: data not shown
# [6] = test system: human NCI-H460 cancer cells xenograft; assay: Nude mouse xenograft, pre-and-post-treatment of CB1a; format: in vivo; details: 50 mg/kg s.c.
# Description: Afterwards, the animal test experiments were performed.
# Six mice were pre-treated with CB1a (50 mg/kg) 3 times in one week prior to them being subcutaneously xenografted with human tumorigenic NCI-H460 lung cancer cells (0.2 ml; 1×10^6 cells/ml). A control was studied in which saline was used instead of CB1a (6 mice in this control group). The dose of CB1a/saline was continued after the xenograft: 5 times per week for 5 weeks. The CB1a/saline injection point was in the dorsolateral neck area and the xenograft cancer cells were transplanted into the abdominal flank area of the mouse (Figure 5A). The distance between these two points is far (∼4 cm) as compared to the length of the mouse (∼6 cm). This distance tested whether CB1a could effectively travel in the blood stream without being destroyed. […] 36 days after the human lung cancer cells were xenografted on to the mouse – the mean volume of the tumor in the CB1a treated mice was just 19.3% of the tumor in the saline treated mice (Figure 5C); the mean weight of the tumor in CB1a treated mice was just 9% of the tumor in saline treated mice (Figure 5D). In other words, the tumor was ∼80% smaller and ∼90% lighter in CB1a treated mice.
# [7] = Pharmacokinetics of CB1a in rat blood by competitive ELISA; format: in vivo; details: Sprague-Dawley rats, 50 mg/kg i.v., competitive ELISA with 5C5H5 antibody
# Description: Using this standard curve, an unknown concentration of CB1a in a test sample can then be found by finding its OD450nm (A/A0) value in an ELISA experiment. […] For our definitive standard curve, we used the one with a dilution rate of 1∶2000 and utilized this dilution rate when assaying test blood samples. We used a primary antibody dilution rate of 1∶5000.
# Six […] male Sprague-Dawley rats (230–260 g; sourced from BioLASCO, Yilan, Taiwan) were housed (3 per cage) in a specific pathogen free animal room. The rats were intravenously injected with CB1a peptide (50 mg/kg) and blood samples were then collected from the tail vein of the rats at the following time points: 5, 20, 25, 38.5, 50, 60 and 240 minutes after the CB1a injection (6 samples taken at each of these time points). The blood samples were transferred to heparinized microcentrifuge tubes and centrifuged at 4,000 g for 5 minutes; then frozen for storage at −80°C.
# The blood samples were analyzed via a competitive ELISA technique, rather than the more direct ELISA technique described earlier. Blood samples were diluted 100 fold and then mixed with a known concentration of CB1a antibody (2mg/ml in PBST buffer, including 1% BSA). […] The CB1a concentration recorded on the plate is added to the known CB1a concentration that is washed off, bound to the CB1a antibodies, to get the total CB1a concentration. […]
# [8] = tumor-bearing nude mice, 0.012 mmol/kg i.v., n = 6
# [9] = tumor-bearing nude mice, 0.012 mmol/kg i.v., 5 injections per week, n = 6
# [10] = tumor-bearing nude mice, 0.012 mmol/kg i.v.
molecule,measurement,setting,value
"CC(=O)O[C@@]12CO[C@@H]1C[C@H](O)[C@@]1(C)C(=O)[C@H](O)C3=C(C)[C@@H](OC(=O)[C@H](O)[C@@H](NC(=O)OC(C)(C)C)c4ccccc4)C[C@@](O)([C@@H](OC(=O)c4ccccc4)[C@H]21)C3(C)C [docetaxel, reference compound]",Selectivity index (SI) of drugs presently on the market,[1],less than one
same,Patients having grade 3 or 4 neutropenia (haematological toxicity),[2],86%
same,Mean tumor volume at week 4,[3]; n = 6,"3,200 mm^3"
same,Mean body weight at week 4,[3]; [8],25 g
same,Mean body weight at week 2 (maximum),[3]; [9],27 g
same,Body weight course,[3]; [10],weight loss
same,Mean body weight at week 5,[3]; [10],21 g
same,Mean tumor weight as % of that in saline treated mice,"[3]; 0.012 mmol/kg i.v., n = 6",73%
COc1cccc2c1C(=O)c1c(O)c3c(c(O)c1C2=O)C[C@@](O)(C(=O)CO)C[C@@H]3O[C@H]1C[C@H](N)[C@H](O)[C@H](C)O1 [doxorubicin],Selectivity index (SI) of drugs presently on the market,[1],less than one
H-KWKVFKKIEKKWKVFKKIEKAGPKWKVFKKIEK-OH [CB1a],Killing of normal cells at concentrations that kill lung cancer cells,3T3/3T6 tissue cells,do not kill
same,"Spheroid formation, post-treatment with CB1a","NCI-H460 cancer cells [4]; CB1a 5, 15, 30, 45, 60 µM applied after 3 days incubation, photo after 36 hours",tumor spheroids can still be observed
same,"Spheroid formation, pre-treatment with CB1a","NCI-H460 cancer cells [4]; CB1a 5-60 µM applied 30 minutes before de-attachment, higher CB1a concentrations",no spheroids form
same,Cell number on plate versus plate without CB1a,MRC-5 normal cells,does not kill these normal cells
same,Cell number on plate versus plate without CB1a,NCI-H460 cancer cells [5],significantly less cells
same,Killing of normal cells at concentrations that kill lung cancer cells,HFL1 cells,do not kill
same,Mean tumor volume as % of that in saline treated mice,"[6]; 36 days after xenograft, pre-and-post-treatment, n = 6",19.3%
same,Mean tumor weight as % of that in saline treated mice,"[6]; day 36, sacrificed, pre-and-post-treatment, n = 6",9%
same,Tumor lighter than in saline treated mice,"[6]; day 36, pre-and-post-treatment",~90%
same,Tumor smaller than in saline treated mice,"[6]; day 36, pre-and-post-treatment",~80%
same,Deaths during the experiment,"[6]; nude mice, 3 times in week before xenograft then 5 times per week for 5 weeks, n = 6",None of the mice died
same,Mean body weight compared with saline treated mice,"[6]; nude mice, pre-and-post-treatment, n = 6",comparable to that of saline treated mice
same,Time for which a CB1a concentration that can kill cancer cells (≥25 µM or ≥105 µg/ml) endures in rat blood,[7],around 25 minutes
same,half-life,"[7]; male, rat, iv, tail vein blood 5-240 minutes, n = 6",16.4 min
same,Mean tumor volume at week 4,[3]; n = 6,"3,100 mm^3"
same,Mean body weight at week 4,[3]; [8],30.5 g
same,Mean body weight at the start,[3]; [9],25.5 g
same,Body weight course,[3]; [10],gained weight at the same trajectory as saline treated mice
same,Mean body weight at week 5,[3]; [10],32 g
same,Mean tumor weight as % of that in saline treated mice,"[3]; 0.012 mmol/kg i.v., n = 6",59%
